In patent US20250066445A1, “OBESITY TREATMENT AND PREVENTION METHODS” (VAULT BIOSCIENCES, INC., priority 2022, published 2025):

Experiments:
Type in all cases: in vivo, human
[1] = Example 13 clinical study combining dulaglutide and fasting; details: One-Meal-A-Day, dose weeks 1-4: 0.2/0.375/0.375/0.6 mg
From the text: Example 13—Clinical Study of Combining Dulaglutide and Fasting Patients are subject to a combination HMT/HNT treatment protocol as described in Table 17 below. […] [table]

[2] = Example 14 clinical study combining dulaglutide and fasting; details: 15-hour fasting, dose weeks 1-4: 0.2/0.375/0.375/0.6 mg
From the text: Example 14—Clinical Study of Combining Dulaglutide and Fasting Patients are subject to a combination HMT/HNT treatment protocol as described in Table 18 below. […] [table]

[3] = Example 15 clinical study combining dulaglutide and fasting; details: 18-hour fasting, dose weeks 1-4: 0.2/0.375/0.375/0.6 mg
From the text: Example 15—Clinical Study of Combining Dulaglutide and Fasting Patients are subject to a combination HMT/HNT treatment protocol as described in Table 19 below. […] [table]

[4] = Example 1 clinical study combining semaglutide (injection) and fasting, Patient 1; details: One-Meal-A-Day
From the text: Example 1—Clinical Study of Combining Semaglutide (Injection) and Fasting
Patient 1 was subject to a combination HMT/HNT treatment protocol as described below.

[5] = Example 2 clinical study combining semaglutide (injection) and fasting; details: 15-hour fasting, dose weeks 1-4: .25/.50/.50/1 mg
From the text: Example 2—Clinical Study of Combining Semaglutide (injection) and Fasting Patients are subject to a combination HMT/HNT treatment protocol as described in Table 6 below. […] [table]

[6] = no exercise, no calorie counting
[7] = starting weight 282 lbs, 30 days, dose weeks 1-4: .25/.50/.50/1 mg, no exercise, no calorie counting

Substance	Hunger [1]	Therapeutic effects (e.g. weight loss) [1, 6]	Hunger [2]	Therapeutic effects (e.g. weight loss) [2, 6]	Hunger [3]	Therapeutic effects (e.g. weight loss) [3, 6]	Hunger ([4]; 30 days, dose weeks 1-4: .25/.50/.50/1 mg)	Hunger ([4]; 30 days, dose weeks 1-4: .25/.50/.50/1 mg, listed as Semaglutide (Injection))	Weight lost ([4]; in 30 days, no exercise, no caloric restrictions) [pounds]	% Bodyweight Reduction ([4]; starting weight 282 lbs, 30 days, dose weeks 1-4: .25/.50/.50/1 mg) [%]	% Bodyweight Reduction ([4]; starting weight 282 lbs, 30 days, dose weeks 1-4: .25/.50/.50/1 mg, listed as Semaglutide (Injection))	Bodyweight reduction [4, 7] [lbs]	Ending Weight [4, 7] [lbs]	Hunger [5]	Therapeutic effects (e.g. weight loss) [5, 6]
Dulaglutide	no discernable or unusual hunger	Desirable therapeutics effects (e.g. weigh loss) are achieved	no discernable or unusual hunger	Desirable therapeutics effects (e.g. weigh loss) are achieved	no discernable or unusual hunger	Desirable therapeutics effects (e.g. weigh loss) are achieved	–	–	–	–	–	–	–	–	–
Semaglutide	–	–	–	–	–	–	No discernable/unusual hunger	no discernable or unusual hunger	30	−9.6	approximately 9.6%	−30	252	no discernable or unusual hunger	Desirable therapeutics effects (e.g. weigh loss) are achieved
